The target in series [1] is T1, Human recombinant liver glycogen phosphorylase α (hrl GPα) (Homo sapiens, UniProt P06737).
T1 sequence (P06737 1-847): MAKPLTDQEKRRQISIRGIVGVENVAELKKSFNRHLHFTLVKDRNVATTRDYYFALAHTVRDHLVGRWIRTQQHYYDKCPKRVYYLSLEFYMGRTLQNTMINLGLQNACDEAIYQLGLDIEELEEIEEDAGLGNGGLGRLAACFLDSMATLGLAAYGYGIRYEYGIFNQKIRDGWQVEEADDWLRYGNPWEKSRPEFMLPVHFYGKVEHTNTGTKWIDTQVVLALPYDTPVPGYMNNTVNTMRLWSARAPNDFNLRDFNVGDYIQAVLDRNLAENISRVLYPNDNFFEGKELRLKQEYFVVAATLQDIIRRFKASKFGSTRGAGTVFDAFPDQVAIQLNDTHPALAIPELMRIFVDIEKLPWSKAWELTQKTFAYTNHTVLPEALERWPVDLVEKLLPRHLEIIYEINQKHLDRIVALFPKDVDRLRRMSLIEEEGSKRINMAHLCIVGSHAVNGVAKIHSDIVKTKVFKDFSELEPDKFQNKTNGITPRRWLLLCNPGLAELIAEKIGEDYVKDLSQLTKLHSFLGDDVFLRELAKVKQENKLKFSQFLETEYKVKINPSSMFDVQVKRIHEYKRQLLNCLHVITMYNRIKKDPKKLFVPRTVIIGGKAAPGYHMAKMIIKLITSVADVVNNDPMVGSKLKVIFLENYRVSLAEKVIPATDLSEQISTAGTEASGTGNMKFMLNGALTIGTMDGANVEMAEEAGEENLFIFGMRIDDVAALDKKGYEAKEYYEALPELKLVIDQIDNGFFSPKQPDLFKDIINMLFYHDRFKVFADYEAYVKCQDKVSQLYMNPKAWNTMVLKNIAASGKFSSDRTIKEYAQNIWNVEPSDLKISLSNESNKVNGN
The series can be described thus: Glycogen phosphorylase inhibition of glycogen degradation (multienzyme coupled assay, NADH fluorescence). It counts as biochemical. To be noted: glycogen degradation direction. How it is done:
The activity of the compounds is alternatively determined by measuring the inhibitory effect of the compounds on glycogen degradation, the production of glucose-1-phosphate from glycogen is monitored by the multienzyme coupled assay, as described in EP 0 846 464 A2, general method of Pesce et al (Pesce, M A, Bodourian, S H, Harris, R C, and Nicholson, J F (1977) Clinical Chemistry 23, […]). The reactions were in 384well microplate format in a volume of 50 μl. The change in fluorescence due to the conversion of the co-factor NAD to NADH is measured at 340 nm excitation, 465 nm emission in a Tecan Ultra Multifunctional Microplate Reader. The reaction is in 50 mM HEPES, 3.5 mM KH2PO4, 2.5 mM MgCl2, 2.5mM ethylene glycol-bis(b-aminoethyl ether) N,N,N′,N′-tetraacetic acid, 100 mM KCl, 8mM D-(+)-glucose pH7.2, containing 0.5 mM dithiothreitol, the assay buffer solution. Human recombinant liver glycogen phosphorylase α (hrl GPα) 20 nM is pre-incubated in assay buffer solution with 6.25 mM NAD, 1.25 mg type III glycogen at 1.25 mg ml^−1 the reagent buffer, for 30 minutes. […] The non-inhibited activity of GPα is measured in the presence of 10 μl 5% DMSO in assay buffer solution and maximum inhibition measured in the presence of 5 mgs ml^−1 N-ethylmaleimide. […] Relative Fluoresence Units (RFUs) are measured at 340 nm excitation, 465 nm emission. […]

Series [2] relates to hepatocytes. To be noted: cited from earlier work.
The conditions of series [3]: db/db and ob/ob mice; cited from earlier work.
For series [4] the following is noted: conscious dogs; cited from earlier work.

The IC50 is the concentration that inhibits the measured activity by half.

For the molecule `O=C(CN(CCO)Cc1ccccc1)N[C@@H]1c2ccccc2C[C@H]1NC(=O)c1cc2cc(Cl)ccc2[nH]1` [Example 17, 5-Chloro-N-[(1R,2R)-1-({[(2-hydroxyethyl)(phenylmethyl)amino]acetyl}amino)-2,3-dihydro-1H-inden-2-yl]-1H-indole-2-carboxamide], the IC50 in series [1] was found to be 7.4 µM.

With `CN(C)C(=O)[C@H](O)[C@H](Cc1ccccc1)NC(=O)c1cc2cc(Cl)ccc2[nH]1` [CP91149], in series [2], the glucagon stimulated glycogenolysis entry is recorded as “reduce” and the “glucose output in hepatocytes” value is “reduce”. Also, the plasma glucose concentration result in series [3] is recorded as “reduced, in a dose related manner”.

For `O=C(N[C@@H](Cc1ccc(F)cc1)C(=O)N1CCC(O)CC1)c1cc2cc(Cl)ccc2[nH]1` [CP320626], in series [2], the glucagon stimulated glycogenolysis entry is listed as “reduce” and the “glucose output in hepatocytes” value is given as “reduce”. For the same molecule, the plasma glucose concentration entry in series [3] is listed as “reduced, in a dose related manner”.

With `CCN1C(C)=C(C(=O)OC(C)C)C(c2ccccc2Cl)C2=C1COC2=O` (stereo not drawn) [Bay R 3401], in series [4], the “arterial plasma glucose following a glucagon challenge” value was “reduced significantly” and the “hepatic glucose output following a glucagon challenge” value was “reduced significantly”.

The values are drawn from US7138415B2, “Indolamid derivatives which possess glycogenphosphorylase inhibitory activity” (AstraZeneca AB, priority 2002, dated 2006).
